Results: PubChem BioAssay AID192 (DTP/NCI, 2004)
Where “and” joins values, the source holds several entries; their conditions need not be identical. Identical values can stand only once. Inconclusive results and toxic doses are left out. How the source made its calls: active means survival T/C of 150% or more; inactive means T/C below 125% in these data.

Tested on: BDF1 mice, B16 melanoma ip, median survival T/C
Assay: NCI In Vivo Anticancer Drug Screen. Data for tumor model B16 Melanoma (intraperitoneal) in B6D2F1 (BDF1) mice
Conditions: endpoint: median survival time, higher = longer survival
Procedure, shortened: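 Read-out: survival or tumor size, given as treated/control ratio. Controls received vehicle only; animals bore transplantable tumors.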

[1] = dose: 25.0 mg/kg/injection, schedule: Q01DX009 (ip), vehicle: Klucel (hydroxypropylcellulose) (HPC)
[2] = dose: 50.0 mg/kg/injection, schedule: Q01DX009 (ip), vehicle: Klucel (hydroxypropylcellulose) (HPC)
[3] = dose: 100.0 mg/kg/injection, schedule: Q01DX009 (ip), vehicle: Klucel (hydroxypropylcellulose) (HPC)
[4] = dose: 200.0 mg/kg/injection, schedule: Q01DX009 (ip), vehicle: Klucel (hydroxypropylcellulose) (HPC)
[5] = dose: 3.12 mg/kg/injection, schedule: Q01DX009 (ip), vehicle: Klucel (hydroxypropylcellulose) (HPC)
[6] = dose: 6.25 mg/kg/injection, schedule: Q01DX009 (ip), vehicle: Klucel (hydroxypropylcellulose) (HPC)
[7] = dose: 12.5 mg/kg/injection, schedule: Q01DX009 (ip), vehicle: Klucel (hydroxypropylcellulose) (HPC)
[8] = dose: 400.0 mg/kg/injection, schedule: Q01DX009 (ip), vehicle: Klucel (hydroxypropylcellulose) (HPC)

Measured: T/C

O=S(=O)(O)c1cc(O)c2ccccc2c1
inactive: dose: 100.0 mg/kg/injection, schedule: Q01DX009 (ip), vehicle: saline 107 % of control | dose: 200.0 mg/kg/injection, schedule: Q01DX009 (ip), vehicle: saline 100 % of control | dose: 400.0 mg/kg/injection, schedule: Q01DX009 (ip), vehicle: saline 102 % of control

CN1CCN(CCCN2c3ccccc3Sc3ccc(C(F)(F)F)cc32)CC1
inactive: dose: 0.58 mg/kg/injection, schedule: Q01DX009 (ip), vehicle: saline 117 % of control | dose: 0.78 mg/kg/injection, schedule: Q01DX009 (ip), vehicle: saline 102 % of control | dose: 1.17 mg/kg/injection, schedule: Q01DX009 (ip), vehicle: saline 112 % of control | dose: 1.56 mg/kg/injection, schedule: Q01DX009 (ip), vehicle: saline 102 % of control | dose: 2.34 mg/kg/injection, schedule: Q01DX009 (ip), vehicle: saline 112 % of control | dose: 3.12 mg/kg/injection, schedule: Q01DX009 (ip), vehicle: saline 112 % of control and 110 % of control | dose: 4.68 mg/kg/injection, schedule: Q01DX009 (ip), vehicle: saline 97 % of control | dose: 6.25 mg/kg/injection, schedule: Q01DX009 (ip), vehicle: saline 102 % of control and 95 % of control | dose: 9.37 mg/kg/injection, schedule: Q01DX009 (ip), vehicle: saline 115 % of control | dose: 12.5 mg/kg/injection, schedule: Q01DX009 (ip), vehicle: saline 105 % of control and 102 % of control | dose: 25.0 mg/kg/injection, schedule: Q01DX009 (ip), vehicle: saline 102 % of control

CCOC(=O)NO
inactive: dose: 75.0 mg/kg/injection, schedule: Q01DX009 (ip), vehicle: saline 100 % of control | dose: 150.0 mg/kg/injection, schedule: Q01DX009 (ip), vehicle: saline 105 % of control | dose: 300.0 mg/kg/injection, schedule: Q01DX009 (ip), vehicle: saline 103 % of control

CCCCNC(C)(C)C(SSSC(c1ccco1)C(C)(C)NCCCC)c1ccco1 (stereo not given)
inactive: dose: 3.13 mg/kg/injection, schedule: Q01DX009 (ip), vehicle: carboxymethylcellulose (CMC) 102 % of control | dose: 6.25 mg/kg/injection, schedule: Q01DX009 (ip), vehicle: carboxymethylcellulose (CMC) 102 % of control | dose: 12.5 mg/kg/injection, schedule: Q01DX009 (ip), vehicle: carboxymethylcellulose (CMC) 95 % of control | [1] 91 % of control | dose: 25.0 mg/kg/injection, schedule: Q01DX009 (ip), vehicle: carboxymethylcellulose (CMC) 86 % of control

COc1c2c([n+](C)c3c(OC)cccc13)OC(C(C)C)C2 (stereo not given)
inactive: dose: 0.25 mg/kg/injection, schedule: Q01DX009 (ip), vehicle: saline sonified 102 % of control | dose: 0.5 mg/kg/injection, schedule: Q01DX009 (ip), vehicle: saline sonified 100 % of control | dose: 0.75 mg/kg/injection, schedule: Q01DX009 (ip), vehicle: saline 94 % of control | dose: 1.0 mg/kg/injection, schedule: Q01DX009 (ip), vehicle: saline sonified 102 % of control | dose: 1.5 mg/kg/injection, schedule: Q01DX009 (ip), vehicle: saline 88 % of control | dose: 1.5 mg/kg/injection, schedule: Q04DX003 (ip), vehicle: saline 107 % of control | dose: 3.0 mg/kg/injection, schedule: Q04DX003 (ip), vehicle: saline 89 % of control

COc1ccc(N=Cc2ccc(C=Nc3ccc(OC)cc3)cc2)cc1
inactive: [2] 92 % of control and 94 % of control | [3] 96 % of control | [4] 88 % of control and 93 % of control

O=S(=O)(OCC(F)(F)F)c1ccccc1
inactive: [2] 109 % of control | [3] 100 % of control | [4] 97 % of control

COC(=O)C1C2CC3c4[nH]c5cc(OC)ccc5c4CCN3CC2CC(OC(=O)c2cc(OC)c(OC)c(OC)c2)C1OC (stereo not given)
inactive: [5] 105 % of control | [6] 105 % of control | [7] 110 % of control | [1] 97 % of control | [2] 90 % of control

O=S(=O)(O)c1ccc2c(O)cc(S(=O)(=O)O)cc2c1
inactive: dose: 100.0 mg/kg/injection, schedule: Q04DX003 (ip), vehicle: saline 100 % of control | dose: 200.0 mg/kg/injection, schedule: Q04DX003 (ip), vehicle: saline 105 % of control | dose: 400.0 mg/kg/injection, schedule: Q04DX003 (ip), vehicle: saline 108 % of control

C=CCOc1ccccc1Cl
inactive: dose: 50.0 mg/kg/injection, schedule: Q04DX003 (ip), vehicle: Klucel (hydroxypropylcellulose) (HPC) 122 % of control | [3] 100 % of control | [4] 107 % of control | dose: 200.0 mg/kg/injection, schedule: Q04DX003 (ip), vehicle: Klucel (hydroxypropylcellulose) (HPC) 119 % of control | [8] 97 % of control

c1cc2cc3c(cc2c2c1CC1c4cc5c(cc4CCN1C2)OCO5)OCO3 (stereo not given)
inactive: [3] 89 % of control | [4] 86 % of control

C=C1C(=O)OC2C=C(C)C3C(O)CC(C)(O)C3CC12 (stereo not given)
inactive: [3] 88 % of control

CCC[N+](CCC)=c1ccc2nc3c(C)cc(N(CC)CC)cc3sc-2c1
inactive: dose: 0.15 mg/kg/injection, schedule: Q01DX009 (ip), vehicle: saline 102 % of control | dose: 0.3 mg/kg/injection, schedule: Q01DX009 (ip), vehicle: saline 102 % of control | dose: 0.6 mg/kg/injection, schedule: Q01DX009 (ip), vehicle: saline with Tween-80 92 % of control | dose: 0.6 mg/kg/injection, schedule: Q01DX009 (ip), vehicle: saline 102 % of control | dose: 1.2 mg/kg/injection, schedule: Q01DX009 (ip), vehicle: saline 105 % of control

NC(=O)c1ccccc1C(N)=O
inactive: [3] 100 % of control | [4] 106 % of control | [8] 93 % of control

CN1NCc2cncnc21
inactive: dose: 50.0 mg/kg/injection, schedule: Q01DX009 (ip), vehicle: saline with Tween-80 107 % of control | dose: 100.0 mg/kg/injection, schedule: Q01DX009 (ip), vehicle: saline with Tween-80 101 % of control | dose: 200.0 mg/kg/injection, schedule: Q01DX009 (ip), vehicle: saline with Tween-80 97 % of control

O=S1(=O)CC(Cl)(Br)C1 (tested in a mixture with another compound)
inactive: [7] 105 % of control | [1] 108 % of control | [2] 108 % of control | [3] 93 % of control and 108 % of control

O=C1N(Cl)C(=O)C(c2ccc(Cl)cc2)(c2ccc(Cl)cc2)N1Cl
inactive: dose: 1.56 mg/kg/injection, schedule: Q01DX009 (ip), vehicle: Klucel (hydroxypropylcellulose) (HPC) 104 % of control | [5] 96 % of control | [6] 104 % of control | [7] 104 % of control | [1] 114 % of control and 101 % of control | dose: 25.0 mg/kg/injection, schedule: Q02DX009 (ip), vehicle: Klucel (hydroxypropylcellulose) (HPC) 103 % of control | [2] 112 % of control | dose: 50.0 mg/kg/injection, schedule: Q02DX009 (ip), vehicle: Klucel (hydroxypropylcellulose) (HPC) 99 % of control | [3] 118 % of control | dose: 100.0 mg/kg/injection, schedule: Q02DX009 (ip), vehicle: Klucel (hydroxypropylcellulose) (HPC) 106 % of control | [4] 117 % of control | dose: 200.0 mg/kg/injection, schedule: Q02DX009 (ip), vehicle: Klucel (hydroxypropylcellulose) (HPC) 96 % of control | [8] 118 % of control

Cc1ccc2c(c1)P(=O)(O)c1cc(Cl)ccc1O2
inactive: dose: 86.4 mg/kg/injection, schedule: Q01DX009 (ip), vehicle: water 100 % of control | dose: 144.0 mg/kg/injection, schedule: Q01DX009 (ip), vehicle: water 94 % of control | dose: 240.0 mg/kg/injection, schedule: Q01DX009 (ip), vehicle: water 101 % of control | dose: 259.0 mg/kg/injection, schedule: Q04DX003 (ip), vehicle: water 123 % of control | dose: 400.0 mg/kg/injection, schedule: Q01DX009 (ip), vehicle: water 98 % of control | dose: 432.0 mg/kg/injection, schedule: Q04DX003 (ip), vehicle: water 88 % of control
